Assay results from ChEMBL document CHEMBL3817758, “Design and synthesis of dual 5-HT1A and 5-HT7 receptor ligands” (Bioorg Med Chem, 2016).

Legend:
Assay in all cases: biochemical
[1] = biological target: T1, 5-hydroxytryptamine receptor 2C (Rattus norvegicus, UniProt P08909)
T1 sequence (P08909 whole entry): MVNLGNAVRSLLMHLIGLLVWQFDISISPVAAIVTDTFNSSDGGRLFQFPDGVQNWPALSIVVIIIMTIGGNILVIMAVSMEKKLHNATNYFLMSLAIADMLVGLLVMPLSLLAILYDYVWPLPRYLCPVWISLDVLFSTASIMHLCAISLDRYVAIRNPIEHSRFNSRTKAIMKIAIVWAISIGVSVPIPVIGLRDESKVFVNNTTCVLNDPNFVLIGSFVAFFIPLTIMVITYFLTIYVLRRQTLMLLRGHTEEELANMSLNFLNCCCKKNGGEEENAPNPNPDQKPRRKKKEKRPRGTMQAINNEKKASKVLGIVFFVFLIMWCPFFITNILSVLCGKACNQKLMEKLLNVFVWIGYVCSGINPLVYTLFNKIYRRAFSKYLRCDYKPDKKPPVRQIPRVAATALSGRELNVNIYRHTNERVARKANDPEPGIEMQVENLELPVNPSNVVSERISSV

[2] = biological target: D(2) dopamine receptor (Homo sapiens, UniProt P14416)
Sequence of D(2) dopamine receptor (P14416 whole entry): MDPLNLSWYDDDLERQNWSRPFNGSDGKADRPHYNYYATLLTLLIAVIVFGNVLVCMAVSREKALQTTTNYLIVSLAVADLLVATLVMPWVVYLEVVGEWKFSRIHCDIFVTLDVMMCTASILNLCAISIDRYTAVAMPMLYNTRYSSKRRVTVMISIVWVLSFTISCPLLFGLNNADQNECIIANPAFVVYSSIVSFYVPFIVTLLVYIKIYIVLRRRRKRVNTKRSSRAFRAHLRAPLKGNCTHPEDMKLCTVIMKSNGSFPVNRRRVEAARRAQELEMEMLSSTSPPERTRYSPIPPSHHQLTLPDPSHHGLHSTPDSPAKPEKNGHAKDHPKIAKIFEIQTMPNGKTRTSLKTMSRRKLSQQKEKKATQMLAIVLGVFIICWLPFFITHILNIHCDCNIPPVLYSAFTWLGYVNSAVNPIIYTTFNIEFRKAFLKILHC

[3] = biological target: Sodium-dependent serotonin transporter (Homo sapiens, UniProt P31645)
Sequence of Sodium-dependent serotonin transporter (P31645 whole entry): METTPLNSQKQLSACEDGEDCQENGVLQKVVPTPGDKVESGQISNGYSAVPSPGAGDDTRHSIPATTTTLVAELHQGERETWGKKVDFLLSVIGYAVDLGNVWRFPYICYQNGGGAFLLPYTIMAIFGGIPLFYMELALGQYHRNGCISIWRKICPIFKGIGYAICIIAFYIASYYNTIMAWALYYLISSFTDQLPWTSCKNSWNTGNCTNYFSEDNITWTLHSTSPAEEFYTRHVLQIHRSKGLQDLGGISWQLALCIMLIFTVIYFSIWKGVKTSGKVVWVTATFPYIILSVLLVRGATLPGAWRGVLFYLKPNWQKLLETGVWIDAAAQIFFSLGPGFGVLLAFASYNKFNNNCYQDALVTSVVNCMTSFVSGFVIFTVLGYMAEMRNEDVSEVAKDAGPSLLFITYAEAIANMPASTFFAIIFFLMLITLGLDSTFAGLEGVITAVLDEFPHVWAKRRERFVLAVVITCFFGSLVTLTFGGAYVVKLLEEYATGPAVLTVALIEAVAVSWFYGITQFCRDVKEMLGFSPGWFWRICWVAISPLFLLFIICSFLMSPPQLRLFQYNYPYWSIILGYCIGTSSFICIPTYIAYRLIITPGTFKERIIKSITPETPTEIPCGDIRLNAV

[4] = biological target: T2, D(4) dopamine receptor (Rattus norvegicus, UniProt P30729)
T2 sequence (P30729 whole entry): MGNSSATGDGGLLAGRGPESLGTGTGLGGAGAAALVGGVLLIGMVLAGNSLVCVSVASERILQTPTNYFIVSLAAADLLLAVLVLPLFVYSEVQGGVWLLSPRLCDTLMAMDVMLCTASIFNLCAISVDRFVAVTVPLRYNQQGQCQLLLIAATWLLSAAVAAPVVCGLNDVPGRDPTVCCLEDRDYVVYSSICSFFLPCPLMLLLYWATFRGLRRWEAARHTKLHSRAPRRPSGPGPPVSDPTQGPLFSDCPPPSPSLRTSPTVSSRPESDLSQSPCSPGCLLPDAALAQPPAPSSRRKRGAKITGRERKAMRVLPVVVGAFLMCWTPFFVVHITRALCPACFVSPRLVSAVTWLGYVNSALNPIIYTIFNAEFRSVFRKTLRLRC

Row | SMILES | Ki [1] | Ki [2] | Ki [3] | Ki [4]
1 | COc1ccc(C(=O)CCCN2CCc3ccccc3C2)cc1 | 1400 nM | – | – | –
2 | NC(=O)c1ccc(C(=O)CCCN2CCc3ccccc3C2)cc1 | 1890 nM | – | – | –
3 | O=C1c2ccccc2C(=O)N1CCCCN1CCC2CCCCC2C1 (stereo not given) | – | > 10000 nM | > 10000 nM | > 10000 nM
